Assay results reported in patent US4889871A, “Alkoxy-substituted dihydrobenzopyran-2-carboxylate derivatives” (G. D. Searle & Co., priority 1988, dated 1989).

Tested on: human neutrophils
Assay: Human neutrophil degranulation assay (LTB4-induced, myeloperoxidase release)
Format: cell-based
Conditions: Table 1, LTB4 (5×10^-8 M)
Experimental: Neutrophils were purified from venous blood of normal human donors using standard techniques of dextran sedimentation, centrifugation on Ficoll-paque® (Pharmacia) or Histopaque® sterile solution (Sigma) and hypotonic lysis of erythrocytes (Boyum, A., Isolation of Leukocytes From Human Blood: Further Observations. Scand. J. Lab. Clin. Invest., 21 (Suppl. 97): 31, 1968). The purity of isolated neutrophils was >95%.
Neutrophil degranulation was determined by measuring the release of myeloperoxidase activity into the incubation medium. Neutrophils (3×10^6) in 1 ml HBSS solution were preincubated with cytochalasin B (5 μg) at 37° C. for 5 minutes, followed by preincubation with test compounds for 7 minutes. Neutrophils were then incubated for 2 to 20 minutes with either LTB4 (5×10^-8 M) or the chemotactic peptide f-met-leu-phe (5×10^-6 M) to induce degranulation. Following incubation, samples were centrifuged and myeloperoxidase was extracted from the cell pellets by sonication in phosphate buffer containing 0.4% Triton X-100. Triton X-100 was also added to the supernatants to a concentration of 0.4%. The supernatants and the pellet - extracts were then assayed spectrophotometrically for myeloperoxidase activity by determining the rate of decomposition of H2 O2 with o-dianisidine as hydrogen donor as described by Renlund, et al. (Renlund, D. G., MacFarlane, J. L., Christensen, R. D., Lynch, R. E., and Rothstein, G., A Quantitative And Sensitive Method For Measurement Of Myeloperoxidase, Clinical Research 28:75A, 1980). Myeloperoxidase activity released into the supernatant was expressed as the percent of the average total activity (pellet plus supernatant).

Work on CCCc1c(OCCCOc2ccc(C(C)=O)c(OC)c2CCC)ccc2c1OC(C(=O)O)CC2 (stereo not shown) [Example 1, 7-[3-(4-acetyl-3-methoxy-2-propylphenoxy)propoxy]-3,4-dihydro-8-propyl-2H-1-benzopyran-2-carboxylic acid] yielded an IC50 of 1500 nM.
